Data reported in article PMC9848300, “Discovery of novel enasidenib analogues targeting inhibition of mutant isocitrate dehydrogenase 2 as antileukaemic agents” (Journal of Enzyme Inhibition and Medicinal Chemistry, 2023).

Key:
[1] = tested on: 60 human subpanel cancer cell lines; experiment: NCI 60 antitumor screening, mean over the panel (single dose); type: cell-based; conditions: mean over 60 cancer cell lines, single dose 10 μM
How it was run: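 Percent growth inhibition, calculated as 100 minus percent growth (G%) of treated cells, following a single 10 μM exposure in the NCI 60 human cancer cell screen; triplicate runs.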

[2] = tested on: SK-MEL-2; experiment: NCI 60 antitumor screening (single dose / five doses); type: cell-based; conditions: Homo sapiens; for inhibition at 10 µM: SK-MEL-2 (melanoma), single dose 10 μM, read-out: Growth inhibition percentage (GI %)
[3] = tested on: LOX IMVI; experiment: as above; type: cell-based; conditions: Homo sapiens; for inhibition at 10 µM: LOX IMVI (melanoma), single dose 10 μM, read-out: Growth inhibition percentage (GI %)
[4] = tested on: UO-31; experiment: as above; type: cell-based; conditions: Homo sapiens; for inhibition at 10 µM: UO-31 (renal cancer), single dose 10 μM, read-out: Growth inhibition percentage (GI %)
[5] = tested on: HCT-15; experiment: as above; type: cell-based; conditions: Homo sapiens; for inhibition at 10 µM: HCT-15 (colon cancer), single dose 10 μM, read-out: Growth inhibition percentage (GI %)
[6] = tested on: EKVX; experiment: as above; type: cell-based; conditions: Homo sapiens; for inhibition at 10 µM: EKVX (non-small cell lung cancer), single dose 10 μM, read-out: Growth inhibition percentage (GI %)
[7] = tested on: A498; experiment: as above; type: cell-based; conditions: Homo sapiens; for inhibition at 10 µM: A498 (renal cancer), single dose 10 μM, read-out: Growth inhibition percentage (GI %)
[8] = tested on: MALME-3M; experiment: as above; type: cell-based; conditions: Homo sapiens; for inhibition at 10 µM: MALME-3M (melanoma), single dose 10 μM, read-out: Growth inhibition percentage (GI %)
[9] = tested on: SN 12C; experiment: as above; type: cell-based; conditions: Homo sapiens, SN12C; for inhibition at 10 µM: SN 12C (renal cancer), single dose 10 μM, read-out: Growth inhibition percentage (GI %)
[10] = tested on: MDA-MB-468; experiment: as above; type: cell-based; conditions: Homo sapiens; for inhibition at 10 µM: MDA-MB-468 (breast cancer), single dose 10 μM, read-out: Growth inhibition percentage (GI %)
[11] = tested on: NCI/ADR-RES; experiment: as above; type: cell-based; conditions: Homo sapiens; for inhibition at 10 µM: NCI/ADR-RES (ovarian cancer), single dose 10 μM, read-out: Growth inhibition percentage (GI %)
[12] = tested on: K-562; experiment: as above; type: cell-based; conditions: Homo sapiens, K562; for inhibition at 10 µM: K-562 (leukaemia), single dose 10 μM, read-out: Growth inhibition percentage (GI %)
[13] = tested on: SW-620; experiment: as above; type: cell-based, human; conditions: Homo sapiens; for inhibition at 10 µM: SW-620 (colon cancer), single dose 10 μM, read-out: Growth inhibition percentage (GI %)
[14] = tested on: ACHN; experiment: as above; type: cell-based; conditions: Homo sapiens; for inhibition at 10 µM: ACHN (renal cancer), single dose 10 μM, read-out: Growth inhibition percentage (GI %)
[15] = tested on: UACC-62; experiment: as above; type: cell-based; conditions: Homo sapiens; for inhibition at 10 µM: UACC-62 (melanoma), single dose 10 μM, read-out: Growth inhibition percentage (GI %)
[16] = tested on: HL-60(TB); experiment: as above; type: cell-based; conditions: Homo sapiens; for inhibition at 10 µM: HL-60(TB) (leukaemia), single dose 10 μM, read-out: Growth inhibition percentage (GI %)
[17] = tested on: SF-295; experiment: as above; type: cell-based; conditions: Homo sapiens; for inhibition at 10 µM: SF-295 (CNS cancer), single dose 10 μM, read-out: Growth inhibition percentage (GI %)
[18] = tested on: SNB-75; experiment: as above; type: cell-based; conditions: Homo sapiens; for inhibition at 10 µM: SNB-75 (CNS cancer), single dose 10 μM, read-out: Growth inhibition percentage (GI %)
[19] = tested on: SK-MEL-28; experiment: as above; type: cell-based; conditions: Homo sapiens; for inhibition at 10 µM: SK-MEL-28 (melanoma), single dose 10 μM, read-out: Growth inhibition percentage (GI %)
[20] = tested on: MOLT-4; experiment: as above; type: cell-based; conditions: Homo sapiens; for inhibition at 10 µM: MOLT-4 (leukaemia), single dose 10 μM, read-out: Growth inhibition percentage (GI %)
[21] = tested on: IGROV1; experiment: as above; type: cell-based; conditions: Homo sapiens, IGROV-1; for inhibition at 10 µM: IGROV1 (ovarian cancer), single dose 10 μM, read-out: Growth inhibition percentage (GI %)
[22] = tested on: MDA-MB-231/ATCC; experiment: as above; type: cell-based; conditions: Homo sapiens; for inhibition at 10 µM: MDA-MB-231/ATCC (breast cancer), single dose 10 μM, read-out: Growth inhibition percentage (GI %)
[23] = tested on: HCT-116; experiment: as above; type: cell-based; conditions: Homo sapiens; for inhibition at 10 µM: HCT-116 (colon cancer), single dose 10 μM, read-out: Growth inhibition percentage (GI %)
[24] = tested on: CCRF-CEM; experiment: as above; type: cell-based; conditions: Homo sapiens; for inhibition at 10 µM: CCRF-CEM (leukaemia), single dose 10 μM, read-out: Growth inhibition percentage (GI %)
[25] = tested on: T-47D; experiment: as above; type: cell-based; conditions: Homo sapiens, T47D; for inhibition at 10 µM: T-47D (breast cancer), single dose 10 μM, read-out: Growth inhibition percentage (GI %)
[26] = tested on: COLO 205; experiment: as above; type: cell-based; conditions: Homo sapiens; for inhibition at 10 µM: COLO 205 (colon cancer), single dose 10 μM, read-out: Growth inhibition percentage (GI %)
[27] = tested on: HT29; experiment: as above; type: cell-based, human; conditions: Homo sapiens; for inhibition at 10 µM: HT-29, HT29 (colon cancer), single dose 10 μM, read-out: Growth inhibition percentage (GI %)
[28] = tested on: SK-MEL-5; experiment: as above; type: cell-based; conditions: Homo sapiens; for inhibition at 10 µM: SK-MEL-5 (melanoma), single dose 10 μM, read-out: Growth inhibition percentage (GI %)
[29] = tested on: SF-539; experiment: as above; type: cell-based; conditions: Homo sapiens; for inhibition at 10 µM: SF-539 (CNS cancer), single dose 10 μM, read-out: Growth inhibition percentage (GI %)

## CN(C)c1ccc(/C=N/Nc2nc(N/N=C/c3ccc(N(C)C)cc3)nc(N3CCCCC3)n2)cc1 [compound 7g, 4-[(1e)-(2-{4-[(E)-2-{[4-(dimethylamino)phenyl]methylidene}chydrazin-1-yl]-6-(piperidin-1-yl)-1,3,5-triazin-2-yl}hydrazin-1-ylidene)methyl]-N,N-dimethylaniline]
[1]
  Mean GI %: 35.10%
[2]
  inhibition at 10 µM: -10.8%
[2]; SK-MEL-2, five doses (0.01–100 μM)
  GI50: 1990 nM
[3]
  inhibition at 10 µM: 173%
[3]; LOX IMVI, five doses (0.01–100 μM), read-out: GI50
  GI50: 1610 nM
[4]
  inhibition at 10 µM: 19.7%
[4]; UO-31, five doses (0.01–100 μM), read-out: GI50
  GI50: 1720 nM
[5]
  inhibition at 10 µM: 99.9%
[5]; HCT-15, five doses (0.01–100 μM), read-out: GI50
  GI50: 1870 nM
[6]
  inhibition at 10 µM: 2.99%
[6]; EKVX, five doses (0.01–100 μM), read-out: GI50
  GI50: 3130 nM
[7]
  inhibition at 10 µM: -15.1%
[7]; A498, five doses (0.01–100 μM), read-out: GI50
  GI50: 1580 nM
[8]
  inhibition at 10 µM: 167%
[8]; MALME-3M, five doses (0.01–100 μM), read-out: GI50
  GI50: 1860 nM
[9]
  inhibition at 10 µM: 49.6%
[9]; SN 12C, five doses (0.01–100 μM), read-out: GI50
  GI50: 1870 nM
[10]
  inhibition at 10 µM: 63.7%
[10]; MDA-MB-468, five doses (0.01–100 μM), read-out: GI50
  GI50: 1640 nM
[11]
  inhibition at 10 µM: 41.7%
[11]; NCI/ADR-RES, five doses (0.01–100 μM), read-out: GI50
  GI50: 3190 nM
[12]
  inhibition at 10 µM: 96.9%
[12]; K-562, five doses (0.01–100 μM), read-out: GI50
  GI50: 890 nM
[13]; SW-620, SW-620, five doses (0.01–100 μM), read-out: GI50
  GI50: 1890 nM
[13]
  inhibition at 10 µM: 35.8%
[14]
  inhibition at 10 µM: 67.6%
[14]; ACHN, five doses (0.01–100 μM), read-out: GI50
  GI50: 2680 nM
[15]
  inhibition at 10 µM: -0.61%
[15]; UACC-62, five doses (0.01–100 μM), read-out: GI50
  GI50: 1840 nM
[16]
  inhibition at 10 µM: 138%
[16]; HL-60(TB), five doses (0.01–100 μM), read-out: GI50
  GI50: 2200 nM
[17]
  inhibition at 10 µM: -6.74%
[17]; SF-295, five doses (0.01–100 μM), read-out: GI50
  GI50: 1960 nM
[18]
  inhibition at 10 µM: -1.39%
[18]; SNB-75, five doses (0.01–100 μM), read-out: GI50
  GI50: 2800 nM
[19]
  inhibition at 10 µM: 58.3%
[19]; SK-MEL-28, five doses (0.01–100 μM), read-out: GI50
  GI50: 2000 nM
[20]
  inhibition at 10 µM: 88%
[20]; MOLT-4, five doses (0.01–100 μM), read-out: GI50
  GI50: 2870 nM
[21]
  inhibition at 10 µM: 6.23%
[21]; IGROV1, five doses (0.01–100 μM), read-out: GI50
  GI50: 2960 nM
[22]; MDA-MB-231/ ATCC, five doses (0.01–100 μM), read-out: GI50
  GI50: 1800 nM
[22]
  inhibition at 10 µM: 31.4%
[23]
  inhibition at 10 µM: 85.1%
[23]; HCT-116, five doses (0.01–100 μM), read-out: GI50
  GI50: 1640 nM
[24]
  inhibition at 10 µM: 74.2%
[24]; CCRF-CEM, five doses (0.01–100 μM), read-out: GI50
  GI50: 1210 nM
[25]
  inhibition at 10 µM: 54%
[25]; T-47D, five doses (0.01–100 μM), read-out: GI50
  GI50: 2180 nM
[26]
  inhibition at 10 µM: 16.5%
[26]; COLO 205, five doses (0.01–100 μM), read-out: GI50
  GI50: 1890 nM
[27]; HT-29, HT29, five doses (0.01–100 μM), read-out: GI50
  GI50: 1760 nM
[27]
  inhibition at 10 µM: 105%
[28]
  inhibition at 10 µM: 13.3%
[28]; SK-MEL-5, five doses (0.01–100 μM), read-out: GI50
  GI50: 1730 nM
[29]
  inhibition at 10 µM: 112%
[29]; SF-539, five doses (0.01–100 μM), read-out: GI50
  GI50: 1990 nM

## Clc1cccc(/C=N/Nc2nc(N/N=C/c3cccc(Cl)c3Cl)nc(N3CCCCC3)n2)c1Cl [compound 7h, 2,4-Bis[(E)-2-[(2,3-Dichlorophenyl)methylidene]hydrazin-1-yl]-6-(piperidin-1-yl)-1,3,5-triazine]
[1]
  Mean GI %: 18.81%
[2]
  inhibition at 10 µM: 2.27%
[3]
  inhibition at 10 µM: 31.7%
[4]
  inhibition at 10 µM: 6.76%
[5]
  inhibition at 10 µM: 34.5%
[6]
  inhibition at 10 µM: 11%
[7]
  inhibition at 10 µM: 7.46%
[8]
  inhibition at 10 µM: 7.49%
[9]
  inhibition at 10 µM: 19.3%
[10]
  inhibition at 10 µM: 7.19%
[11]
  inhibition at 10 µM: 32.6%
[12]
  inhibition at 10 µM: 21.9%
[13]
  inhibition at 10 µM: 57.4%
[14]
  inhibition at 10 µM: 16.3%
[15]
  inhibition at 10 µM: 31.7%
[16]
  inhibition at 10 µM: -6.32%
[17]
  inhibition at 10 µM: 7.34%
[18]
  inhibition at 10 µM: -4.05%
[19]
  inhibition at 10 µM: 5.78%
[20]
  inhibition at 10 µM: 15.7%
[21]
  inhibition at 10 µM: 20.4%
[22]
  inhibition at 10 µM: 15.8%
[23]
  inhibition at 10 µM: 51.2%
[24]
  inhibition at 10 µM: 28.7%
[25]
  inhibition at 10 µM: 51.7%
[26]
  inhibition at 10 µM: 9.72%
[27]
  inhibition at 10 µM: 15.7%
[28]
  inhibition at 10 µM: 0.02%
[29]
  inhibition at 10 µM: 15.7%
